Measurements reported in patent US7833939B2, “Herbicide compositions” (Kumiai Chemical Industry Co., Ltd., priority 2002, dated 2010).
One block for each compound: values may come before it.

Legend:
[1] = tested on: corn; experiment: Herbicidal effect by upland field soil treatment (Application Example 1): phytotoxicity to corn; format: in vivo; conditions: 30th day from treatment
Experimental: (§1) Test for Herbicidal Effect by Upland Field Soil Treatment
(§2) An upland field soil was filled in a plastic pot of 11 cm each of length, width and depth. Seeds of corn, green foxtail (Setaria viridis) and common lambsquarters (Chenopodium album L.) were sowed, followed by covering with the same soil. The wettable powder produced in accordance with Formulation 1 was weighed so as to provide active ingredients in a predetermined amount, and was diluted with water and sprayed uniformly on the soil surface using a small sprayer, in an amount of 100 liters per […]. Then, growing was made in a greenhouse, and the herbicidal effect of each wettable powder was examined at the 30th day from the treatment in accordance with the standard shown in Table 15.

[2] = tested on: green foxtail (Setaria viridis); experiment: Herbicidal effect by upland field soil treatment (Application Example 1): green foxtail; format: in vivo; conditions: 30th day from treatment
Experimental: as §1, §2

[3] = tested on: common lambsquarters (Chenopodium album L.); experiment: Herbicidal effect by upland field soil treatment (Application Example 1): common lambsquarters; format: in vivo; conditions: 30th day from treatment
Experimental: as §1, §2

[4] = 32 g a.i./ha, soil surface spray of wettable powder, index of Table 15
[5] = 32 g a.i./ha, upland field soil treatment
[6] = 16 g a.i./ha, upland field soil treatment
[7] = 16 g a.i./ha, soil surface spray of wettable powder, index of Table 15
[8] = 500 g a.i./ha, soil surface spray of wettable powder, index of Table 15
[9] = 500 g a.i./ha, upland field soil treatment

- melting point: 89 to 90 °C
SMILES: CC1(C)CC(SCc2c(C(F)(F)F)nn(-c3ccccc3)c2Cl)=NO1

- melting point: 79 to 81 °C
SMILES: CC1(C)CC(SCc2c(C(F)(F)F)nn(C(C)(C)C)c2Cl)=NO1

- melting point: 120 to 122 °C
SMILES: CC1(C)CC(SCc2c(C(F)(F)F)n[nH]c2Cl)=NO1

- melting point: 41 to 42 °C
SMILES: CC1(C)CC(SCc2c(C(F)(F)F)nn(C(F)F)c2Cl)=NO1

- melting point: 89 to 90 °C
SMILES: CC1(C)CC(SCc2c(Cl)nn(C(F)F)c2C(F)(F)F)=NO1

- melting point: 151 to 152 °C
SMILES: CC1(C)CC(S(=O)(=O)Cc2c(C(F)(F)F)nn3c2OCCC3)=NO1

- melting point: 77 to 80 °C
SMILES: CC1(C)CC(S(=O)(=O)Cc2cnccc2C(F)(F)F)=NO1

- melting point: 95 to 96 °C
SMILES: CON=C(C)c1c(C)sc(C)c1CS(=O)(=O)C1=NOC(C)(C)C1 [Compound 2-0001, 5,5-dimethyl-3-[2,5-dimethyl-4-(1-methoxyiminoethyl)-thiophen-3-ylmethylsulfonyl]-2-isoxazoline]
- Herbicidal effect Corn [1, 4]: 0 (Herbicidal effect or phytotoxicity of from 0 to 9%)
- Herbicidal effect Green foxtail (Sataria viridis) [2, 4]: 2 (Herbicidal effect or phytotoxicity of from 20 to 29%)
- Herbicidal effect Common lambsquarter (Chenopodium album L.) [3, 4]: 1 (Herbicidal effect or phytotoxicity of from 10 to 19%)

- melting point: 132 to 133 °C
SMILES: CC1(C)CC(S(=O)(=O)Cc2c(C(F)(F)F)nn(-c3ccccc3)c2Cl)=NO1 [Compound 3-0002, 3-(5-chloro-1-phenyl-3-trifluoromethyl-1H-pyrazol-4-ylmethylsulfonyl)-5,5-dimethyl-2-isoxazoline]
- Herbicidal effect Corn [1, 5]: 0 (Herbicidal effect or phytotoxicity of from 0 to 9%)
- Herbicidal effect Green foxtail (Sataria viridis) [2, 5]: 5 (Herbicidal effect or phytotoxicity of from 50 to 59%)
- Herbicidal effect Common lambsquarter (Chenopodium album L.) [3, 5]: 2 (Herbicidal effect or phytotoxicity of from 20 to 29%)

- melting point: 158 to 160 °C
SMILES: CCS(=O)(=O)c1c(CS(=O)(=O)C2=NOC(C)(C)C2)c(C(F)(F)F)nn1-c1ccccc1 [Compound 3-0004, 5,5-dimethyl-3-(5-ethylsulfonyl-1-phenyl-3-trifluoromethyl-1H-pyrazol-4-ylmethylsulfonyl)-2-isoxazoline]
- Herbicidal effect Corn [1, 5]: 0 (Herbicidal effect or phytotoxicity of from 0 to 9%)
- Herbicidal effect Green foxtail (Sataria viridis) [2, 5]: 3 (Herbicidal effect or phytotoxicity of from 30 to 39%)
- Herbicidal effect Common lambsquarter (Chenopodium album L.) [3, 5]: 2 (Herbicidal effect or phytotoxicity of from 20 to 29%)

- melting point: 150 to 151 °C
SMILES: CN(C)c1c(CS(=O)(=O)C2=NOC(C)(C)C2)c(C(F)(F)F)nn1-c1ccccc1 [Compound 3-0005, 5,5-dimethyl-3-(5-dimethylamino-1-phenyl-3-trifluoromethyl-1H-pyrazol-4-ylmethylsulfonyl)-2-isoxazoline]
- Herbicidal effect Corn [1, 5]: 0 (Herbicidal effect or phytotoxicity of from 0 to 9%)
- Herbicidal effect Green foxtail (Sataria viridis) [2, 5]: 2 (Herbicidal effect or phytotoxicity of from 20 to 29%)
- Herbicidal effect Common lambsquarter (Chenopodium album L.) [3, 5]: 2 (Herbicidal effect or phytotoxicity of from 20 to 29%)

- melting point: 126 to 127 °C
SMILES: CC1(C)CC(S(=O)(=O)Cc2c(C(F)(F)F)nn(C(F)F)c2Cl)=NO1 [Compound 3-0010, 3-(5-chloro-1-difluoromethyl-3-trifluoromethyl-1H-pyrazol-4-ylmethylsulfonyl)-5,5-dimethyl-2-isoxazoline]
- Herbicidal effect Corn [1, 6]: 0 (Herbicidal effect or phytotoxicity of from 0 to 9%)
- Herbicidal effect Green foxtail (Sataria viridis) [2, 6]: 2 (Herbicidal effect or phytotoxicity of from 20 to 29%)
- Herbicidal effect Common lambsquarter (Chenopodium album L.) [3, 6]: 2 (Herbicidal effect or phytotoxicity of from 20 to 29%)

- melting point: 136 to 137 °C
SMILES: CC1(C)CC(S(=O)(=O)Cc2c(Cl)nn(C(F)F)c2C(F)(F)F)=NO1 [Compound 3-0011, 3-(3-chloro-1-difluoromethyl-5-trifluoromethyl-1H-pyrazol-4-ylmethylsulfonyl)-5,5-dimethyl-2-isoxazoline]
- Herbicidal effect Corn [1, 6]: 0 (Herbicidal effect or phytotoxicity of from 0 to 9%)
- Herbicidal effect Green foxtail (Sataria viridis) [2, 6]: 3 (Herbicidal effect or phytotoxicity of from 30 to 39%)
- Herbicidal effect Common lambsquarter (Chenopodium album L.) [3, 6]: 2 (Herbicidal effect or phytotoxicity of from 20 to 29%)

- melting point: 124 to 125 °C
SMILES: CCOc1nn(C)c(C(F)(F)F)c1CS(=O)(=O)C1=NOC(C)(C)C1 [Compound 3-0012, 5,5-dimethyl-3-(3-ethoxy-1-methyl-5-trifluoromethyl-1H-pyrazol-4-ylmethylsulfonyl)-2-isoxazoline]
- Herbicidal effect Corn [1, 6]: 0 (Herbicidal effect or phytotoxicity of from 0 to 9%)
- Herbicidal effect Green foxtail (Sataria viridis) [2, 6]: 2 (Herbicidal effect or phytotoxicity of from 20 to 29%)
- Herbicidal effect Common lambsquarter (Chenopodium album L.) [3, 6]: 1 (Herbicidal effect or phytotoxicity of from 10 to 19%)

- melting point: 113 to 114 °C
SMILES: COc1c(CS(=O)(=O)C2=NOC(C)(C)C2)c(C(F)(F)F)nn1C [Compound 3-0013, 5,5-dimethyl-3-(5-methoxy-1-methyl-3-trifluoromethyl-1H-pyrazol-4-ylmethylsulfonyl)-2-isoxazoline]
- Herbicidal effect Corn [1, 6]: 0 (Herbicidal effect or phytotoxicity of from 0 to 9%)
- Herbicidal effect Green foxtail (Sataria viridis) [2, 6]: 2 (Herbicidal effect or phytotoxicity of from 20 to 29%)
- Herbicidal effect Common lambsquarter (Chenopodium album L.) [3, 6]: 2 (Herbicidal effect or phytotoxicity of from 20 to 29%)

- melting point: 67 to 70 °C
SMILES: Cn1nc(C(F)(F)F)c(CS(=O)(=O)C2=NOC(C)(C)C2)c1Oc1ccccc1Cl [Compound 3-0014, 3-(5-(2-chlorophenoxy)-1-methyl-3-trifluoromethyl-1H-pyrazol-4-ylmethylsulfonyl)-5,5-dimethyl-2-isoxazoline]
- Herbicidal effect Corn [1, 5]: 0 (Herbicidal effect or phytotoxicity of from 0 to 9%)
- Herbicidal effect Green foxtail (Sataria viridis) [2, 5]: 2 (Herbicidal effect or phytotoxicity of from 20 to 29%)
- Herbicidal effect Common lambsquarter (Chenopodium album L.) [3, 5]: 2 (Herbicidal effect or phytotoxicity of from 20 to 29%)

- melting point: 113 to 114 °C
SMILES: Cn1nc(C(F)(F)F)c(CS(=O)(=O)C2=NOC(C)(C)C2)c1OC1CCCC1 [Compound 3-0015, 3-(5-cyclopentyloxy-1-methyl-3-trifluoromethyl-1H-pyrazol-4-ylmethylsulfonyl)-5,5-dimethyl-2-isoxazoline]
- Herbicidal effect Corn [1, 5]: 0 (Herbicidal effect or phytotoxicity of from 0 to 9%)
- Herbicidal effect Green foxtail (Sataria viridis) [2, 5]: 3 (Herbicidal effect or phytotoxicity of from 30 to 39%)
- Herbicidal effect Common lambsquarter (Chenopodium album L.) [3, 5]: 3 (Herbicidal effect or phytotoxicity of from 30 to 39%)

- melting point: 105 to 108 °C
SMILES: Cn1nc(C(F)(F)F)c(CS(=O)(=O)C2=NOC(C)(C)C2)c1C#N [Compound 3-0016, 3-(5-cyano-1-methyl-3-trifluoromethyl-1H-pyrazol-4-ylmethylsulfonyl)-5,5-dimethyl-2-isoxazoline]
- Herbicidal effect Corn [1, 6]: 0 (Herbicidal effect or phytotoxicity of from 0 to 9%)
- Herbicidal effect Green foxtail (Sataria viridis) [2, 6]: 3 (Herbicidal effect or phytotoxicity of from 30 to 39%)
- Herbicidal effect Common lambsquarter (Chenopodium album L.) [3, 6]: 3 (Herbicidal effect or phytotoxicity of from 30 to 39%)

SMILES: Cn1nc(C(F)(F)F)c(CS(=O)(=O)C2=NOC(C)(C)C2)c1OC(F)F [Compound 3-0188, 3-(5-difluoromethoxy-1-methyl-3-trifluoromethyl-1H-pyrazol-4-ylmethanesulfonyl)-5,5-dimethyl-2-isoxazoline]
- Herbicidal effect Green foxtail (Sataria viridis) [2, 7]: 3 (Herbicidal effect or phytotoxicity of from 30 to 39%)
- Herbicidal effect Common lambsquarter (Chenopodium album L.) [3, 7]: 2 (Herbicidal effect or phytotoxicity of from 20 to 29%)

SMILES: Cc1nsc(Cl)c1CS(=O)(=O)C1=NOC(C)(C)C1 [Compound 4-0002, [(5-chloro-3-methyl-isothiazol-4-yl)-methylsulfonyl]-5,5-dimethyl-2-isoxazoline]
- Herbicidal effect Corn [1, 4]: 0 (Herbicidal effect or phytotoxicity of from 0 to 9%)
- Herbicidal effect Green foxtail (Sataria viridis) [2, 4]: 3 (Herbicidal effect or phytotoxicity of from 30 to 39%)
- Herbicidal effect Common lambsquarter (Chenopodium album L.) [3, 4]: 2 (Herbicidal effect or phytotoxicity of from 20 to 29%)

SMILES: COc1ncnc(C(F)(F)F)c1CS(=O)(=O)C1=NOC(C)(C)C1 [Compound 8-0001, 5,5-dimethyl-[(4-methoxy-6-trifluoromethylpyrimidin-5-yl)-methylsulfonyl]-2-isoxazoline]
- Herbicidal effect Corn [1, 7]: 0 (Herbicidal effect or phytotoxicity of from 0 to 9%)
- Herbicidal effect Green foxtail (Sataria viridis) [2, 7]: 2 (Herbicidal effect or phytotoxicity of from 20 to 29%)
- Herbicidal effect Common lambsquarter (Chenopodium album L.) [3, 7]: 1 (Herbicidal effect or phytotoxicity of from 10 to 19%)

SMILES: CCNc1nc(Cl)nc(NC(C)(C)C#N)n1 [Cyanazine, cyanazine, reference compound]
- Herbicidal effect Corn [1, 8]: 0 (Herbicidal effect or phytotoxicity of from 0 to 9%)
- Herbicidal effect Corn [1, 9]: 0 (Herbicidal effect or phytotoxicity of from 0 to 9%)
- Herbicidal effect Green foxtail (Sataria viridis) [2, 8]: 1 (Herbicidal effect or phytotoxicity of from 10 to 19%)
- Herbicidal effect Green foxtail (Sataria viridis) [2, 9]: 1 (Herbicidal effect or phytotoxicity of from 10 to 19%)
- Herbicidal effect Common lambsquarter (Chenopodium album L.) [3, 8]: 2 (Herbicidal effect or phytotoxicity of from 20 to 29%)
- Herbicidal effect Common lambsquarter (Chenopodium album L.) [3, 9]: 2 (Herbicidal effect or phytotoxicity of from 20 to 29%)
